# Data as given in patent US20210220489A1, “AMYGDALAR NEURAL ENSEMBLE THAT ENCODES THE UNPL[…] PAIN” (The Board of Trustees of the Leland Stanford Junior …, priority 2020, published 2021).
# What was measured:
# Type in all cases: in vivo
# [1] = tested on: control mice expressing eYFP in the BLA nociceptive ensemble; assay: Pain behaviors in control mice expressing eYFP in the BLA nociceptive ensemble (no hM4)
# Description: For chemogenetic activity manipulation of BLA neuronal ensembles, we intracranially injected 100 nL of either AAV5-hSyn-DIO-hM4-mCherry (U. North Carolina Viral Core; titre: 3.98×1012), AAV5-hSyn-DIO-mCherry (U. North Carolina Viral Core; titre: 4.72×1012), AAVDJ-Ef1a-DIO-eYFP (Stanford Viral Core; titre: 2.65×1011) into both the left and right BLA at coordinates AP: −1.20 mm, ML: ±3.1 mm, DV: −4.60 mm.
# (§1) To evaluate mechanical reflexive sensitivity, we used a logarithmically increasing set of 8 von Frey filaments (Stoelting), ranging in gram force from 0.07- to 6.0-g (93). These filaments were applied perpendicular to the plantar hindpaw with sufficient force to cause a slight bending of the filament. A positive response was characterized as a rapid withdrawal of the paw away from the stimulus within 4 s. Using the Up-Down statistical method, the 50% withdrawal mechanical threshold scores were calculated for each mouse and then averaged across the experimental groups. The response frequency was calculated as the number of positive responses out of 10 stimulations, delivered at 30-s intervals.
# To evaluate affective-motivational responses evoked by mechanical stimulation, we used three von Frey filaments (0.07-g, 0.4-g, and 2.0-g) and a sharp 25G syringe needle (pin prick) (94). […]
# (§2) To evaluate affective-motivational responses evoked by thermal stimulation (81), we applied either a single, unilateral 50-μL drop of water (5, 30, or 55° C.) or acetone (evaporative cooling) to the left hindpaw, and the duration of attending behavior was collected for up to 60 s after the stimulation. […] The track was subdivided into 25 temperature zones (4.8-cm D per zone), and we assessed the temperature at the center of each zone by a K-probe thermocouple. […] A video camera placed above the track recorded the position of the mouse within the temperature zones, and videos were later analyzed using a video-tracking software (Etho-vision, Noldus) for duration of zone occupancy, zone visits, distance, velocity, and acceleration.
# [2] = tested on: noci-TRAP^hM4 mice; assay: Thermal gradient track adaptive avoidance; conditions: versus saline
# Description: To evaluate affective-motivational responses evoked by thermal stimulation (81), we applied either a single, unilateral 50-μL drop of water (5, 30, or 55° C.) or acetone (evaporative cooling) to the left hindpaw, and the duration of attending behavior was collected for up to 60 s after the stimulation. Only one drop stimulation was applied on a given testing session. To evaluate adaptive thermal avoidance and temperature preference, we placed mice in the center of a linear Thermal Gradient Track (121.92-cm L×8.25-cm W metal alloy floor; 15.24-cm H black plastic walls), with the floor featuring a temperature gradient along the long axis. Mice freely explored the track for 60 min. To create the temperature gradient, we placed either heating or cooling plates (Bioseb) under the outermost 16.51 cm of the metal floor, with one plate set to 50.0° C. and the other set to 0.0° C., creating an actual floor gradient of 48° C.→5° C., respectively. The track was subdivided into 25 temperature zones (4.8-cm D per zone), and we assessed the temperature at the center of each zone by a K-probe thermocouple. […] A video camera placed above the track recorded the position of the mouse within the temperature zones, and videos were later analyzed using a video-tracking software (Etho-vision, Noldus) for duration of zone occupancy, zone visits, distance, velocity, and acceleration.
# [3] = tested on: o-TRAP^hM4 mice; assay: Pain behaviors evoked by optogenetic activation of nociceptors (o-TRAP^hM4); conditions: noxious transdermal light stimuli
# Text: Different AAV serotypes display unique infection tropisms. […] To express the light-sensitive cation channel channelrhodopsin2 (ChR2) in putative primary afferent nociceptors, we intrathecally injected AAV6-hSyn-ChR2(H134R)-eYFP immediately following the i.c. BLA injections of AAV-DIO-DREADD(Gi)-mCherry in TRAP mice while remaining anesthetized under isoflurane (1-2% maintenance). Specifically, we shaved a small patch of fur on the back, wiped with alcohol and Betadine, and then inserted a 33G beveled needle connected to a WPI Nanofil syringe between the L5/L6 vertebrae and through the dura (confirmation by presence of reflexive tail flick). We slowly administered the virus was over 20 s. We retuned mice to their home cage for 4-6 weeks before behavioral verification of ChR2 expression. […] As we sought expression in lumbar DRGs for the purposes of our behavioral experiments that involve sensory testing on the hind limbs, we performed a behavioral screening of each mouse for transdermal light-responsivity when light was applied to the hindpaw. We placed mice inside individual red plastic cylinders (10.16-cm D) on a thin glass surface. […] We measured whether an immediate nociceptive hindpaw reflex and/or pain affective-motivational behaviors (described below) occurred in response to the light indicated ChR2 expression in nociceptors. […]
# [4] = tested on: control neuropathic mice; assay: Pain behaviors in control neuropathic mice not expressing hM4-mCherry in the BLA; conditions: absence of hM4 expression, CNO 10 mg/kg, morphine as positive control
# Text: To induce a chronic pain state, we used a modified version of the Spared Nerve Injury (SNI) model of neuropathic pain, as previously described (70). This model entails surgical section of two of the sciatic nerve branches (common peroneal and tibial branches) while sparing the third (sural branch). […] To perform this peripheral nerve injury procedure, anesthesia was induced and maintained throughout surgery with isoflurane (4% induction, 1.5% maintenance in oxygen). The left hind leg was shaved and wiped clean with alcohol and betadine. We made a 1-cm incision in the skin of the mid-dorsal thigh, approximately where the sciatic nerve trifurcates. The biceps femoris and semimembranosus muscles were gently separated from one another with blunt scissors, thereby creating a <1-cm opening between the muscle groups to expose the common peroneal, tibial, and sural branches of the sciatic nerve. Next, −2 mm of both the common peroneal and tibial nerves were transected and removed, without suturing and with care not to distend the sural nerve. The leg muscles are left uncultured and the skin was closed with tissue adhesive (3M Vetbond), followed by a Betadine application. During recovery from surgery, mice were placed under a heat lamp until awake and achieved normal balanced movement. Mice were then returned to their home cage and closely monitored over the following three days for well-being.
# as §1, with “A positive response was characterized as a rapid withdrawal of the paw away from the stimulus within 4 s.” left out
# as §2
# [5] = CNO 10 mg/kg, AAVDJ-Ef1α-DIO-eYFP control mice
compound,measurement,setting,value
"C[N+]1([O-])CCN(C2=Nc3cc(Cl)ccc3Nc3ccccc32)CC1 [CNO, clozapine-N-oxide]",affective-motivational behaviors,[1]; [5],Lack of effect
same,reflexive behaviors,[1]; [5],Lack of effect
same,pain behaviors,"[1]; CNO alone, control mice",had no effect
same,visits to the noxious zones,[2]; polar ends noxious cold (5 to 17° C.) and hot (42 to 8° C.),more frequently
same,occupancy of the noxious zones,[2]; polar ends noxious cold (5 to 17° C.) and hot (42 to 48° C.),prolonged periods
same,attending and escape behaviors,[3],reduces
same,affective-motivational behaviors,[4]; acetone drop,Lack of effect
same,reflex behaviors,[4]; von Frey filaments,Lack of effect
